The data set concerns Anopheles stephensi. The data set can be described thus: Anopheles stephensi treated well plate contact test: knockdown and mortality. Type of data set: in vivo. Here is the method:
Examples Anopheles stephensi (Indian Malaria Mosquito)
The individual wells of twelve (12) well tissue culture plates were treated with 200 μl of an ethanol solution containing a test compound of Table 1 or Table 2 at a defined concentration and repeated with also 200 μl of an ethanol solution containing in addition 2 ppm TFNA-AM. Once the deposits were dry, five non-blood fed adult female Anopheles stephensi (between two to five day old) were added to each well, and sustained with a 10% sucrose solution in a cotton wool plug. Assessment of the knockdown after 1 hour, and mortality after 24 and 48 hours was carried out.
In case of multiple tests, the mean value is reported.

[1] abbreviates: Anopheles stephensi, 24 h, read-out: mortality % 24, without TFNA-AM.
[2] abbreviates: Anopheles stephensi, 48 h, read-out: mortality % 48, without TFNA-AM.
Setting [3] is: Anopheles stephensi, test compound 0.2 ppm, without TFNA-AM, knockdown after 1 hour, read-out: Knock Down, without TFNA-AM.
[4] abbreviates: Anopheles stephensi, test compound 2 ppm, without TFNA-AM, knockdown after 1 hour, read-out: Knock Down, without TFNA-AM.
The mark [5] stands for this setting: Anopheles stephensi, test compound 20 ppm, without TFNA-AM, knockdown after 1 hour, read-out: Knock Down, without TFNA-AM.
Where [6] appears, read: test compound 0.2 ppm plus 2 ppm TFNA-AM, after 24 hours.
Where [7] appears, read: test compound 0.2 ppm plus 2 ppm TFNA-AM, after 48 hours.
Where [8] appears, read: test compound 0.2 ppm plus 2 ppm TFNA-AM, knockdown after 1 hour.
The mark [9] stands for this setting: test compound 2 ppm plus 2 ppm TFNA-AM, after 24 hours.
Where [10] appears, read: test compound 2 ppm plus 2 ppm TFNA-AM, after 48 hours.
[11] abbreviates: test compound 2 ppm plus 2 ppm TFNA-AM, knockdown after 1 hour.
The mark [12] stands for this setting: test compound 20 ppm plus 2 ppm TFNA-AM, after 24 hours.
Where [13] appears, read: test compound 20 ppm plus 2 ppm TFNA-AM, after 48 hours.
The mark [14] stands for this setting: test compound 20 ppm plus 2 ppm TFNA-AM, knockdown after 1 hour.
Where [15] appears, read: test compound 200 ppm plus 2 ppm TFNA-AM, after 24 hours.
The mark [16] stands for this setting: test compound 200 ppm plus 2 ppm TFNA-AM, after 48 hours.
Where [17] appears, read: test compound 200 ppm plus 2 ppm TFNA-AM, knockdown after 1 hour.
Where [18] appears, read: Anopheles stephensi, test compound 0.2 ppm, without TFNA-AM, after 24 hours, read-out: mortality % 24, without TFNA-AM.
The mark [19] stands for this setting: Anopheles stephensi, test compound 0.2 ppm, without TFNA-AM, after 48 hours, read-out: mortality % 48, without TFNA-AM.
Setting [20] is: Anopheles stephensi, test compound 2 ppm, without TFNA-AM, after 24 hours, read-out: mortality % 24, without TFNA-AM.
The mark [21] stands for this setting: Anopheles stephensi, test compound 2 ppm, without TFNA-AM, after 48 hours, read-out: mortality % 48, without TFNA-AM.
The mark [22] stands for this setting: Anopheles stephensi, test compound 20 ppm, without TFNA-AM, after 24 hours, read-out: mortality % 24, without TFNA-AM.
[23] abbreviates: Anopheles stephensi, test compound 20 ppm, without TFNA-AM, after 48 hours, read-out: mortality % 48, without TFNA-AM.
The mark [24] stands for this setting: Anopheles stephensi, test compound 200 ppm, without TFNA-AM, after 24 hours, read-out: mortality % 24, without TFNA-AM.
The mark [25] stands for this setting: Anopheles stephensi, test compound 200 ppm, without TFNA-AM, after 48 hours, read-out: mortality % 48, without TFNA-AM.
[26] abbreviates: Anopheles stephensi, test compound 200 ppm, without TFNA-AM, knockdown after 1 hour, adult females, read-out: Knock Down, without TFNA-AM.

Like-named read-outs stand apart in the source and are kept apart here.

The term mortality denotes the percentage killed. For `CNC(=O)Oc1cccc2c1OC(C)(C)O2` [Bendiocarb], the mortality at 0.02 ppm was 0% under setting [1] and 0% under setting [2]. Further, the mortality at 0.2 ppm under setting [1] is 60% and the mortality at 0.2 ppm under setting [2] stood at 60%. Moreover, the mortality at 2 ppm under setting [1] was 100% and the mortality at 2 ppm under setting [2] was determined as 100%. The mortality at 20 ppm by setting is: under setting [1], 100%; under setting [2], 100%. In addition, under “Anopheles stephensi, test compound 0.02 ppm, without TFNA-AM, knockdown after 1 hour, read-out: Knock Down, without TFNA-AM”, the pest or weed control at 0.02 ppm came out at 0%. Under setting [3], the pest or weed control at 0.2 ppm is 20%. In addition, under setting [4], the pest or weed control at 2 ppm was 100%. Besides, under setting [5], the pest or weed control at 20 ppm worked out at 100%. In addition, the “mortality % 24, with TFNA-AM” value reads like this: (test compound 0.02 ppm plus 2 ppm TFNA-AM, after 24 hours) 20%; under setting [6], 100%; under setting [9], 100%; under setting [12], 100%. For the same molecule, the “Knock Down, with TFNA-AM” value came to 100% (test compound 0.02 ppm plus 2 ppm TFNA-AM, knockdown after 1 hour); 100% under setting [8]; 100% under setting [11]; 100% under setting [14]. For the same molecule, the “mortality % 48, with TFNA-AM” value reads like this: under setting [7], 100%; under setting [10], 100%; under setting [13], 100%.
On to `CN(C(=O)c1ccccc1)c1cccc(C(=O)Nc2c(Br)cc(C(F)(C(F)(F)F)C(F)(F)F)cc2C(F)(F)F)c1F` [Broflanilide], for which the “mortality % 24, with TFNA-AM” value by setting is: under setting [6], 87%; under setting [9], 100%; under setting [12], 100%; under setting [15], 100%. Moreover, the “mortality % 48, with TFNA-AM” value was found to be 93% under setting [7], 100% under setting [10], 100% under setting [13] and 100% under setting [16]. Also, the “Knock Down, with TFNA-AM” value under setting [8] was 100%; the “Knock Down, with TFNA-AM” value under setting [11] amounted to 100%; the “Knock Down, with TFNA-AM” value under setting [14] came out at 93%; the “Knock Down, with TFNA-AM” value under setting [17] was determined as 87%. Also, the “mortality % 24, without TFNA-AM” value (test compound 0.2 ppm, without TFNA-AM, after 24 hours) turned out to be 0%; the “mortality % 24, without TFNA-AM” value (test compound 2 ppm, without TFNA-AM, after 24 hours) came out at 100%; the “mortality % 24, without TFNA-AM” value (test compound 20 ppm, without TFNA-AM, after 24 hours) was 100%; the “mortality % 24, without TFNA-AM” value (test compound 200 ppm, without TFNA-AM, after 24 hours) amounted to 100%. Further, the “mortality % 48, without TFNA-AM” value runs as follows: (test compound 0.2 ppm, without TFNA-AM, after 48 hours) 20%; (test compound 2 ppm, without TFNA-AM, after 48 hours) 100%; (test compound 20 ppm, without TFNA-AM, after 48 hours) 100%; (test compound 200 ppm, without TFNA-AM, after 48 hours) 100%. The “Knock Down, without TFNA-AM” value is, setting by setting: (test compound 0.2 ppm, without TFNA-AM, knockdown after 1 hour) 0%; (test compound 2 ppm, without TFNA-AM, knockdown after 1 hour) 0%; (test compound 20 ppm, without TFNA-AM, knockdown after 1 hour) 0%; (test compound 200 ppm, without TFNA-AM, knockdown after 1 hour, adult females) 0%.
For `CC(C)N1C(=O)N(c2ccccc2)CS/C1=N\C(C)(C)C` [Buprofezin], the mortality at 0.2 ppm came to 0% under setting [18] and 0% under setting [19]. Besides, the pest or weed control at 0.2 ppm under setting [3] was 0%. In addition, the mortality at 2 ppm reads like this: under setting [20], 0%; under setting [21], 0%. Also, the pest or weed control at 2 ppm under setting [4] is 0%. Further, the mortality at 20 ppm by setting is: under setting [22], 0%; under setting [23], 0%. Also, under setting [5], the pest or weed control at 20 ppm was 0%. Moreover, the mortality at 200 ppm was determined as 0% under setting [24] and 0% under setting [25]. In addition, under setting [26], the pest or weed control at 200 ppm was 0%. Further, the “mortality % 24, with TFNA-AM” value under setting [6] was 80%; the “mortality % 24, with TFNA-AM” value under setting [9] worked out at 100%; the “mortality % 24, with TFNA-AM” value under setting [12] was determined as 100%; the “mortality % 24, with TFNA-AM” value under setting [15] is recorded as 80%. Also, the “mortality % 48, with TFNA-AM” value is listed as 60% under setting [7], 60% under setting [10], 60% under setting [13] and 40% under setting [16]. Besides, the “Knock Down, with TFNA-AM” value is, setting by setting: under setting [8], 100%; under setting [11], 100%; under setting [14], 100%; under setting [17], 100%.
Take `CN/C(=N\[N+](=O)[O-])NCc1cnc(Cl)s1` [Clothianidin]: the mortality at 0.2 ppm was found to be 0% under setting [18] and 0% under setting [19]. Also, the pest or weed control at 0.2 ppm under setting [3] amounted to 0%. In addition, the mortality at 2 ppm is, setting by setting: under setting [20], 0%; under setting [21], 0%. Moreover, under setting [4], the pest or weed control at 2 ppm was determined as 0%. The mortality at 20 ppm runs as follows: under setting [22], 0%; under setting [23], 20%. In addition, under setting [5], the pest or weed control at 20 ppm worked out at 0%. Besides, the mortality at 200 ppm under setting [24] was found to be 0% and the mortality at 200 ppm under setting [25] turned out to be 20%. For the same molecule, the pest or weed control at 200 ppm under setting [26] worked out at 0%. In addition, the “mortality % 48, with TFNA-AM” value by setting is: under setting [7], 0%; under setting [10], 100%; under setting [13], 100%; under setting [16], 100%. Further, the “Knock Down, with TFNA-AM” value under setting [8] was found to be 100%; the “Knock Down, with TFNA-AM” value under setting [11] amounted to 100%; the “Knock Down, with TFNA-AM” value under setting [14] stood at 100%; the “Knock Down, with TFNA-AM” value under setting [17] was determined as 100%. For the same molecule, the “mortality % 24, with TFNA-AM” value was determined as 100% under setting [9], 100% under setting [12] and 100% under setting [15].
`CO/C=C(/C(=O)OC)c1ccccc1Oc1nc(C(C)(C)C)ns1` [Compound 48]: the mortality at 0.2 ppm under setting [18] was 0% and the mortality at 0.2 ppm under setting [19] was 0%. Under setting [3], the pest or weed control at 0.2 ppm was 20%. The mortality at 2 ppm is, setting by setting: under setting [20], 100%; under setting [21], 100%. Further, the pest or weed control at 2 ppm under setting [4] is 60%. In addition, the mortality at 20 ppm runs as follows: under setting [22], 100%; under setting [23], 100%. In addition, under setting [5], the pest or weed control at 20 ppm came out at 100%. Besides, the mortality at 200 ppm by setting is: under setting [24], 100%; under setting [25], 100%. The pest or weed control at 200 ppm under setting [26] worked out at 100%. The “mortality % 24, with TFNA-AM” value is listed as 80% under setting [6], 100% under setting [9], 100% under setting [12] and 100% under setting [15]. The “mortality % 48, with TFNA-AM” value under setting [7] was found to be 100%; the “mortality % 48, with TFNA-AM” value under setting [10] stood at 100%; the “mortality % 48, with TFNA-AM” value under setting [13] was determined as 100%; the “mortality % 48, with TFNA-AM” value under setting [16] was 100%. Besides, the “Knock Down, with TFNA-AM” value runs as follows: under setting [8], 100%; under setting [11], 100%; under setting [14], 100%; under setting [17], 100%.
Turning to `CO/C=C(/C(=O)OC)c1ccccc1Oc1cc(C(F)(F)F)ccn1` [Compound 49], the mortality at 0.2 ppm reads like this: under setting [18], 0%; under setting [19], 0%. The pest or weed control at 0.2 ppm under setting [3] is 0%. For the same molecule, the mortality at 2 ppm runs as follows: under setting [20], 60%; under setting [21], 60%. In addition, under setting [4], the pest or weed control at 2 ppm was determined as 0%. Besides, the mortality at 20 ppm reads like this: under setting [22], 100%; under setting [23], 100%. Moreover, the pest or weed control at 20 ppm under setting [5] came to 50%. Further, the mortality at 200 ppm reads like this: under setting [24], 100%; under setting [25], 100%. Moreover, under setting [26], the pest or weed control at 200 ppm is 50%. Besides, the “mortality % 24, with TFNA-AM” value is reported as 50% under setting [6], 90% under setting [9], 100% under setting [12] and 100% under setting [15]. The “mortality % 48, with TFNA-AM” value is recorded as 10% under setting [7], 90% under setting [10], 90% under setting [13] and 90% under setting [16]. For the same molecule, the “Knock Down, with TFNA-AM” value came to 90% under setting [8], 100% under setting [11], 100% under setting [14] and 100% under setting [17].

The values are drawn from patent US20260206755A1, “COMPOUNDS AND COMPOSITIONS HAVING KNOCK-DOWN OR BLOOD FEED INHIBITION ACTIVITY AGAINST INSECT PESTS” (priority 2017, published 2026).
